# Legend:
# CYP2C19 = CYP2C19 (Homo sapiens, UniProt P33261); assay: CYP2C19 inhibition, S-mephenytoin probe in human liver microsomes
# Protocol: (§1) The total volume of the in vitro metabolic incubation system is 200 μL. The probe substrate concentration in the system is shown in Supplementary Table S1. […] The reaction sample was preheated in a constant temperature mixer at 37°C. Then NADP^+ was added to the system to initiate the reaction. The reaction time is 30 min, and 100 μL acetonitrile will be added on time to quickly terminate the reaction, followed by centrifugation at 4°C and 20,000 g for 20 min. The supernatant was analyzed using liquid chromatography tandem mass spectrometry (LC-MS/MS), and the activity of CYP enzymes was evaluated by the generation of probe metabolites. The mass spectrometry information of probe substrates is shown in Supplementary Table S3.
# (§2) The isolated triterpenoids (1–66) were used to establish a compounds library. The inhibitory effects of 66 triterpenoids from G. lucidum on seven subtypes of CYP enzymes (CYP1A2, 2A6, 2D6, 2B6, 2C9, 2C19, 3A4) were evaluated followed the above-mentioned experimental procedures.
# (§3) Table S1. The information of probes for CYPs activity assay
# CYP1A2 = molecular target: T1, CYP1A2 (Homo sapiens, UniProt P05177); assay: CYP1A2 inhibition, probe/drug metabolism in human liver microsomes (LC-MS/MS); conditions: human, human liver microsomes, pH 7.4, probe phenacetin 40 μM, Residual activity (%) CYP1A2, HLM 0.5 mg/mL, phenacetin 40 μM, 30 min
# T1 sequence (P05177 1-516): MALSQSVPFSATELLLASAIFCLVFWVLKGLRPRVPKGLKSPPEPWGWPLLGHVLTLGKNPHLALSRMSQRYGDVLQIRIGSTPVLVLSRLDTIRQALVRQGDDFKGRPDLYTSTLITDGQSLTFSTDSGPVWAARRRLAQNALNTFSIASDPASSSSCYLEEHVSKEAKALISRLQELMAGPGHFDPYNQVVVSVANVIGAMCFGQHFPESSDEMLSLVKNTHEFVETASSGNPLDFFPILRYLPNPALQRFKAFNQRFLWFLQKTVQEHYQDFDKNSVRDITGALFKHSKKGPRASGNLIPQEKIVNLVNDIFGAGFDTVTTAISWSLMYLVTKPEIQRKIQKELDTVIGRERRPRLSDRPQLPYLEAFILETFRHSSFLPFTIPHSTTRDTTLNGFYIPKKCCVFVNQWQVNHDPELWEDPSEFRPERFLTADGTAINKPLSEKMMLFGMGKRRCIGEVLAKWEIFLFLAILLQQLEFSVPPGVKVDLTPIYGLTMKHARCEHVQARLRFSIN
# Protocol: as §1, §2
# For 16 clinical drugs metabolized by CYP enzymes, potential DDI studies were conducted on triterpenoids (6, 25) of G. lucidum, and IC50 values were measured.
# Clinical drugs: Phenacetin, melatonin, clozapine and riluzole are metabolized by CYP1A2. Bupropion, artemisinin, efavirenz and sertraline are metabolized by CYP2B6. Diclofenac, valsartan, glimepiride and glibenclamide are metabolized by CYP2C9. Midazolam, imatinib, simvastatin and diltiazem are metabolized by CYP3A4.
# as §3
# Table S2. Information of clinical drugs
# CYP2C19, sequence (P33261 whole entry): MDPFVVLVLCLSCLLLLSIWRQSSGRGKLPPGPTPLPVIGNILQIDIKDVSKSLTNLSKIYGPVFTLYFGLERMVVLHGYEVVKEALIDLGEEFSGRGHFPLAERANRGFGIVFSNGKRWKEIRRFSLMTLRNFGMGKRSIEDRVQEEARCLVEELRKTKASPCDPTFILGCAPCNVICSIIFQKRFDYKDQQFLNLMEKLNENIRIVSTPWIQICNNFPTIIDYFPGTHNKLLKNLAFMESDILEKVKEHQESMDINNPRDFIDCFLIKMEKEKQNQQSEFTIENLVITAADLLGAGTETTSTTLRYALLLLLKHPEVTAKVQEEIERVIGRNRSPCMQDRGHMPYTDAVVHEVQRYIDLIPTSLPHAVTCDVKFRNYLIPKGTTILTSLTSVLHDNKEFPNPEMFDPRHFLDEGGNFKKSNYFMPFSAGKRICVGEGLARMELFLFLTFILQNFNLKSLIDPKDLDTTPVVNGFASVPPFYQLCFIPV
structure (smiles),measurement,setting,value
"CC(CCC(O)C(C)(O)CO)C1CCC2(C)C3=C(C(=O)CC12C)C1(C)CCC(=O)C(C)(C)C1CC3 (stereo not drawn) [Compound 25, ganodrol C]",IC50,CYP2C19,15.4 µM
same,activity at 30 min,"CYP2C19; human, human liver microsomes, pH 7.4, probe S-mephenytoin 50 μM, Residual activity (%) CYP2C19, HLM 0.5 mg/mL, S-mephenytoin 50 μM, 30 min",39.2 ± 4.83%
same,activity at 30 min,CYP1A2,104 ± 18.9%

# From PMC11605156, “Triterpenoids from Ganoderma lucidum inhibit cytochrome P450 enzymes interfering with the metabolic process of specific clinical drugs” (Frontiers in Pharmacology, 2024)
